These results are taken from patent publication US11572366B2, “Heterocyclic compounds as immunomodulators” (Incyte Corporation, priority 2015, dated 2023).

The assay deals with PD-1/PD-L1 protein/protein interaction (Homo sapiens (Human), UniProt Q9NZQ7). The assay is described as follows: PD-1/PD-L1 Homogeneous Time-Resolved Fluorescence (HTRF) binding assay. Particulars: recombinant human PD-L1 (19-238) His-tag 10 nM, human PD-1 (25-167) Fc tag 3 nM, 25° C., PBS pH 7.4. On the procedure:
Example A. PD-1/PD-L Homogeneous Time-Resolved Fluorescence (HTRF) Binding Assay
The assays were conducted in a standard black 384-well polystyrene plate with a final volume of 20 μL. Inhibitors were first serially diluted in DMSO and then added to the plate wells before the addition of other reaction components. The final concentration of DMSO in the assay was 1%. The assays were carried out at 25° C. in the PBS buffer (pH 7.4) with 0.05% Tween-20 and 0.1% BSA. Recombinant human PD-L1 protein (19-238) with a His-tag at the C-terminus was purchased from AcroBiosystems (PD1-H5229). Recombinant human PD-1 protein (25-167) with Fc tag at the C-terminus was also purchased from AcroBiosystems (PD1-H5257). PD-L1 and PD-1 proteins were diluted in the assay buffer and 10 μL was added to the plate well. Plates were centrifuged and proteins were preincubated with inhibitors for 40 minutes. The incubation was followed by the addition of 10 μL of HTRF detection buffer supplemented with Europium cryptate-labeled anti-human IgG (PerkinElmer-AD0212) specific for Fe and anti-His antibody conjugated to SureLight®-Allophycocyanin (APC, PerkinElmer-AD0059H). After centrifugation, the plate was incubated at 25° C. for 60 min. before reading on a PHERAstar FS plate reader (665 nm/620 nm ratio). Final concentrations in the assay were—3 nM PD1, 10 nM PD-L1, 1 nM europium anti-human IgG and 20 nM anti-His-Allophycocyanin.IC50 determination was performed by fitting the curve of percent control activity versus the log of the inhibitor concentration using the GraphPad Prism 5.0 software.
For orientation: TR-FRET usually uses a lanthanide donor and a delayed reading to cut background.

Chain of PD-1/PD-L1 protein/protein interaction (Q9NZQ7 19-238): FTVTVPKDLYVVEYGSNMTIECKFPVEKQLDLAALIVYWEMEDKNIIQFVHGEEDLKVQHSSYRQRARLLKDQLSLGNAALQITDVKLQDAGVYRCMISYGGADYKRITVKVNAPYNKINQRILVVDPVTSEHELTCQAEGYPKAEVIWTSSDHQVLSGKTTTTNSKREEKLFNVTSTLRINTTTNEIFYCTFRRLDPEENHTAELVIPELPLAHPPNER

For orientation: IC50 means the concentration at which inhibition is half-maximal. For `Cc1c(-c2ccccc2)cccc1-c1nc2cc(CN3CCCC[C@H]3C(=O)O)c(OCC#N)cc2o1` [Example 26, (2S)-1-{[6-(cyanomethoxy)-2-(2-methylbiphenyl-3-yl)-1,3-benzoxazol-5-yl]methyl}piperidine-2-carboxylic Acid], the IC50 is at most 10 nM.
Regarding `N#CCOc1cc2oc(-c3cccc(-c4ccc5c(c4)OCCO5)c3C#N)nc2cc1CN1CCCC[C@H]1C(=O)O` [Example 37, (2S)-1-{[2-[2-cyano-3-(2,3-dihydro-1,4-benzodioxin-6-yl)phenyl]-6-(cyanomethoxy)-1,3-benzoxazol-5-yl]methyl}piperidine-2-carboxylic Acid], the IC50 was 10 to 100 nM.
The result for `Cc1cc(CNCCO)cc2nc(-c3cccc(-c4ccc5c(c4)OCCO5)c3C#N)oc12` [Example 18, 2-(2,3-dihydro-1,4-benzodioxin-6-yl)-6-(5-{[(2-hydroxyethyl)amino]methyl}-7-methyl-1,3-benzoxazol-2-yl)benzonitrile] reads at most 10 nM; that for `Cc1c(-c2ccccc2)cccc1-c1nc2c(C)cc(CNCCO)cc2s1` [Example 23, 2-({[4-methyl-2-(2-methylbiphenyl-3-yl)-1,3-benzothiazol-6-yl]methyl}amino)ethanol], 10 to 100 nM.
In the case of `Cc1c(-c2ccccc2)cccc1-c1cc2nc(CN3CCCC[C@H]3C(=O)O)cc(C)c2o1` [Example 4, (2S)-1-{[7-methyl-2-(2-methylbiphenyl-3-yl)furo[3,2-b]pyridin-5-yl]methyl}piperidine-2-carboxylic Acid], the IC50 lay in the range of 10 to 100 nM.
For `Cc1c(-c2ccccc2)cccc1-c1nc2cc(CNCCO)c(OCCCC#N)c(C)c2o1` [Example 34, 4-{[5-{[(2-hydroxyethyl)amino]methyl}-7-methyl-2-(2-methylbiphenyl-3-yl)-1,3-benzoxazol-6-yl]oxy}butanenitrile], the half-maximal inhibitory concentration (IC50) fell in the range of 10 to 100 nM.
`Cc1c(-c2ccccc2)cccc1-c1cc2cc(CN3CCCC[C@H]3C(=O)O)cnc2o1` [Example 9, (2S)-1-{[2-(2-methylbiphenyl-3-yl)furo[2,3-b]pyridin-5-yl]methyl}piperidine-2-carboxylic Acid]: the IC50 is 100 to 1000 nM.
The result for `Cc1c(-c2ccccc2)cccc1-c1cc2ccc(CNCCO)nc2o1` [Example 1, 2-({[2-(2-methylbiphenyl-3-yl)furo[2,3-b]pyridin-6-yl]methyl}amino)ethanol] reads 10 to 100 nM; that for `Cc1c(-c2ccccc2)cccc1-c1cc2nc(CN3CCCC[C@H]3C(=O)O)ccc2o1` [Example 20, (2S)-1-{[2-(2-methylbiphenyl-3-yl)furo[3,2-b]pyridin-5-yl]methyl}piperidine-2-carboxylic Acid], 100 to 1000 nM.
For `Cc1c(-c2ccccc2)cccc1-c1nc2cc(CNCCO)cc(C)c2o1` [Example 12, 2-({[7-methyl-2-(2-methylbiphenyl-3-yl)-1,3-benzoxazol-5-yl]methyl}amino)ethanol], the IC50 was at most 10 nM.
In the case of `Cc1c(-c2ccccc2)cccc1-c1cc2nc(CNCCO)ccc2o1` [Example 21, 2-({[2-(2-methylbiphenyl-3-yl)furo[3,2-b]pyridin-5-yl]methyl}amino)ethanol], the IC50 lay in the range of 10 to 100 nM.
In the case of `Cc1c(-c2ccccc2)cccc1-c1cc2cc(CNCCO)cnc2o1` [Example 10, 2-({[2-(2-methylbiphenyl-3-yl)furo[2,3-b]pyridin-5-yl]methyl}amino)ethanol], the IC50 is 10 to 100 nM.
For the molecule `COc1cc2oc(-c3cccc(-c4ccccc4)c3C)nc2cc1CNCCO` [Example 31, 2-({[6-methoxy-2-(2-methylbiphenyl-3-yl)-1,3-benzoxazol-5-yl]methyl}amino)ethanol], the IC50 was at most 10 nM.
For `Cc1c(-c2ccccc2)cccc1-c1cc2nc(CNCCO)cc(C)c2o1` [Example 3, 2-({[7-methyl-2-(2-methylbiphenyl-3-yl)furo[3,2-b]pyridin-5-yl]methyl}amino)ethanol], the IC50 was 10 to 100 nM.
As for `Cc1c(-c2ccc3c(c2)OCCO3)ccnc1-c1nc2cc(CN3CCCC[C@H]3C(=O)O)c(OCC#N)cc2o1` [Example 35, (2S)-1-({6-(cyanomethoxy)-2-[4-(2,3-dihydro-1,4-benzodioxin-6-yl)-3-methylpyridin-2-yl]-1,3-benzoxazol-5-yl}methyl)piperidine-2-carboxylic Acid], the IC50 was in the range of 10 to 100 nM.
